Where two headings read alike, the source gives them in different places. Where no end group is shown, it is not given here.
What was measured:
Assay type in all cases: cell-based
[1] = test system: six bacteria (S. aureus, E. coli, P. aeruginosa; ATCC and clinical isolate); conditions: synthesized mature peptide
Procedure: (§1) Antimicrobial testing of 78 cathelicidin MPs was performed in two phases as outlined in Figure 1 . In phase I, 40 peptides (27 extant and 13 ancestral) were selected for testing based on rank (outlined above) and similarity to published marsupial cathelicidins with known antimicrobial activity ([33], [41]–[43]). These peptides were tested against nine bacteria (Staphylococcus aureus ATCC 29213 and clinical isolate, Escherichia coli ATCC 25922 and clinical isolate, Pseudomonas aeruginosa ATCC 27853 and clinical isolate, Streptococcus agalactiae ATCC 12386 and clinical isolate, Streptococcus pneumoniae ATCC 49619) and three fungi (Candida krusei ATCC 6258, Candida parapsilosis ATCC 22019, and Candida albicans clinical isolate). Details regarding these strains are available in Supplementary Table 4 . The antimicrobial activity of cathelicidins was determined as the minimum inhibitory concentration (MIC), which was the lowest concentration of cathelicidin that prevented visible bacterial or fungal growth, relative to the negative control. […] Minimum bactericidal concentration (MBC) and/or minimum fungicidal concentration (MFC) was conducted to determine microbicidal versus static action. Activity against S. aureus ATCC, E. coli ATCC, and Pseudomonas aeruginosa ATCC 27853 was examined in the presence of divalent cations to determine the impact of inhibitors.
(§2) In phase II, the remaining 38 peptides (37 extant and one ancestral) were tested against six bacteria (S. aureus ATCC and clinical isolate, E. coli ATCC and clinical isolate, and P. aeruginosa ATCC and clinical isolate). […] No further testing on phase II peptides was performed. Detailed methods for all assays are provided in subsequent sections.
(§3) Antimicrobial activity was determined using a broth microdilution susceptibility assay in 96 well polypropylene plates according to Clinical Laboratory Standards Institute guidelines M07-A and M26A as described previously ([33], [42], [43]). The bacterial and fungal isolates from humans and animals used in this study are outlined in Supplementary Table 4 . Only yeasts were included in the panel of fungi as they have been used in the susceptibility testing of eutherian ([3], [81]–[83]) and other marsupial cathelicidins previously ([33], [42], [43]). Cathelicidin mature peptides were solubilized in DMSO and serially diluted in duplicate from 128-0.25μg/mL in a final volume of 100µL. For bacteria, cathelicidins were diluted in Mueller Hinton Broth (MHB) with or without 10% lysed horse blood, and with (MH II B) or without (MHB) calcium and magnesium cations. For fungi, cathelicidins were diluted in Roswell Park Memorial Institute medium (RPMI)-1640 MOPS. Ampicillin or tetracycline were included as a positive control for Gram-positive and -negative bacteria respectively, while amphotericin B was used for fungi. A media-only negative control and growth control (no cathelicidin) were also included on each plate. Bacteria were sub-cultured on Muller Hinton agar (MHA) or sheep blood agar (BA), and fungi on Sabouraud dextrose agar (SAB), 20–24 hours prior to the test. Colonies were suspended in saline, the concentration adjusted to a 0.5 McFarland standard, and then diluted in media to a concentration of 1.0 x 10^6 cells/mL. Then, 100μL was added to each well of the cathelicidin dilution plate, giving a final inoculum density of 5 x 10^5 CFU/mL and cathelicidin concentration of 64-0.125μg/mL. Colony counts were performed on MHA/BA/SAB to confirm inoculum density. All plates were incubated at 35°C for 20–24 hours, depending on the strain.
(§4) Colonies were counted and compared to the colony count of the starting inoculum.

[2] = test system: Streptococcus agalactiae Clinical isolate - animal; assay: microbe, parasite or virus in culture; conditions: read-out: MIC S. agalactiae
Procedure: as §1, §3, §4

[3] = test system: Streptococcus pneumoniae ATCC 49619; assay: microbe, parasite or virus in culture; conditions: read-out: MIC S. pneumoniae ATCC
Procedure: as §1, §3, §4

[4] = test system: Streptococcus agalactiae ATCC 12386; assay: microbe, parasite or virus in culture; conditions: read-out: MIC S. agalactiae ATCC
Procedure: as §1, §3, §4

[5] = test system: Staphylococcus aureus clinical isolate - animal; assay: microbe, parasite or virus in culture
Procedure: as §1, §2, §3, §4

[6] = test system: Pseudomonas aeruginosa ATCC 27853; assay: microbe, parasite or virus in culture; conditions: read-out: MIC P. aeruginosa ATCC
Procedure: as §1, §2, §3, §4

[7] = test system: Staphylococcus aureus ATCC 29213; assay: microbe, parasite or virus in culture
Procedure: as §1, §2, §3, §4

[8] = test system: Escherichia coli clinical isolate - animal; assay: microbe, parasite or virus in culture
Procedure: as §1, §2, §3, §4

[9] = test system: Pseudomonas aeruginosa clinical isolate - animal; assay: microbe, parasite or virus in culture; conditions: read-out: MIC P. aeruginosa
Procedure: as §1, §2, §3, §4

[10] = test system: Escherichia coli ATCC 25922; assay: microbe, parasite or virus in culture
Procedure: as §1, §2, §3, §4

[11] = broth microdilution screening, phase I or II, Y/N summary over the bacteria tested
[12] = clinical isolate, value in brackets, µM equivalent of Table 3
[13] = clinical isolate, µM equivalent of Table 3
[14] = value in brackets, µM equivalent of Table 3

PGRKKGSKRHKPGSYSVIALGKPGVKKAPYMEAL [MagiCath2]
Antibacterial (MIC <64ug/mL) [1, 11]: N (Antibacterial (MIC <64ug/mL))

KKFLKSVIKEAISKGIPKGIQAVNKLIKEKKEGQKHKP [MAP2, marsupial ancestral peptide, predicted by ANCESCON and GASP, synthesized]
Antibacterial (MIC <64ug/mL) ([1]; antimicrobial screening Phase II, Y/N summary over bacteria tested, broth microdilution): N (Antibacterial (MIC <64ug/mL))

KVKRGLWDSVKKKVSKFRNSIRRRVTSFKIGAADIRKGYSVA [BepeCath7]
MIC ([2]; clinical isolate - animal): >13.2 µM | MIC ([3]; ATCC 49619): >13.2 µM | MIC ([4]; ATCC 12386): >13.2 µM | MIC ([5]; clinical isolate - animal, read-out: MIC S. aureus): >13.2 µM | MIC ([6]; ATCC 27853): >13.2 µM | MIC ([7]; ATCC 29213, read-out: MIC S. aureus ATCC): >13.2 µM | MBC E. coli ([8]; clinical isolate - animal): 13.2 µM | MIC ([8]; clinical isolate - animal): 6.6 µM | MIC in the presence of cations E. coli ([8]; clinical isolate - animal): 6.6 µM | MIC ([9]; clinical isolate - animal): >13.2 µM | MBC E. coli ATCC ([10]; ATCC 25922): 13.2 µM | MIC ([10]; ATCC 25922, read-out: MIC E. coli ATCC): 6.6 µM | MIC ([10]; ATCC 25922, read-out: MIC in the presence of cations E. coli ATCC): 6.6 µM

KEKATKFRNSIRRRVNGLKIGAADRVPGHYLA [MagiCath5]
Antibacterial (MIC <64ug/mL) [1, 11]: N (Antibacterial (MIC <64ug/mL))

KKTRTKPKNSIRRRIKGFGIGTIILVPL [MagiCath6, predicted eastern grey kangaroo cathelicidin mature peptide]
Antibacterial (MIC <64ug/mL) [1, 11]: Y (Antibacterial (MIC <64ug/mL)) | MBC S. aureus [5, 12]: 17.6 µM | MIC S. aureus [5, 13]: 17.6 µM | MIC ([6]; µM equivalent of Table 3): >17.6 µM | MBC S. aureus ATCC [7, 14]: 17.6 µM | MIC S. aureus ATCC ([7]; µM equivalent of Table 3): 17.6 µM | MBC E. coli [8, 12]: 17.6 µM | MIC E. coli [8, 13]: 17.6 µM | MIC [9, 13]: >17.6 µM | MBC E. coli ATCC [10, 14]: 8.8 µM | MIC E. coli ATCC ([10]; µM equivalent of Table 3): 8.8 µM

PRRKKGPKKDNYKPGGYSLIALGKPDIQKAPYMEAL [MaruCath7]
Antibacterial (MIC <64ug/mL) [1, 11]: N (Antibacterial (MIC <64ug/mL))

GSTSSPTVRF [LahiCath2]
Antibacterial (MIC <64ug/mL) [1, 11]: N (Antibacterial (MIC <64ug/mL))

CC1(C)S[C@@H]2[C@H](NC(=O)[C@H](N)c3ccccc3)C(=O)N2[C@H]1C(=O)O [Ampicillin, reference compound]
MIC ([2]; Streptococcus agalactiae, clinical isolate, phase I peptides only, 5 x 10^5 CFU/mL, 35°C 20–24 hours, duplicate): 0.25 µg/mL | MIC ([2]; Streptococcus agalactiae, clinical isolate, µM equivalent of Table 3): 0.7 µM | MIC ([3]; Streptococcus pneumoniae, ATCC49619, phase I peptides only, 5 x 10^5 CFU/mL, 35°C 20–24 hours, duplicate): > 64 µg/mL | MIC ([3]; Streptococcus pneumoniae, ATCC49619, µM equivalent of Table 3): > 183 µM | MIC ([4]; Streptococcus agalactiae, ATCC12386, phase I peptides only, 5 x 10^5 CFU/mL, 35°C 20–24 hours, duplicate): 0.25 µg/mL | MIC ([4]; Streptococcus agalactiae, ATCC12386, µM equivalent of Table 3): 0.7 µM | MIC ([5]; Staphylococcus aureus, clinical isolate, MHB without cations, 5 x 10^5 CFU/mL, 35°C 20–24 hours, duplicate, read-out: MIC S. aureus): 0.25 µg/mL | MIC ([5]; Staphylococcus aureus, clinical isolate, superscript value, cation-adjusted Mueller Hinton broth, read-out: MIC in the presence of cations S. aureus): 0.25 µg/mL | MIC ([5]; Staphylococcus aureus, clinical isolate, superscript value, cation-adjusted Mueller Hinton broth, µM equivalent, read-out: MIC in the presence of cations S. aureus): 0.7 µM | MIC ([5]; Staphylococcus aureus, clinical isolate, µM equivalent of Table 3, read-out: MIC S. aureus): 0.7 µM | MIC ([7]; Staphylococcus aureus, ATCC29213, MHB without cations, 5 x 10^5 CFU/mL, 35°C 20–24 hours, duplicate, 64-0.125μg/mL, read-out: MIC S. aureus ATCC): 1 µg/mL | MIC ([7]; Staphylococcus aureus, ATCC29213, superscript value, cation-adjusted Mueller Hinton broth (calcium and magnesium), read-out: MIC in the presence of cations S. aureus ATCC): 2 µg/mL | MIC ([7]; Staphylococcus aureus, ATCC29213, superscript value, cation-adjusted Mueller Hinton broth, µM equivalent of Table 3, read-out: MIC in the presence of cations S. aureus ATCC): 5.7 µM | MIC ([7]; Staphylococcus aureus, ATCC29213, µM equivalent of Table 3, read-out: MIC S. aureus ATCC): 2.8 µM | MIC ([8]; Escherichia coli, clinical isolate, MHB without cations, 5 x 10^5 CFU/mL, 35°C 20–24 hours, duplicate): > 64 µg/mL | MIC ([8]; Escherichia coli, clinical isolate, µM equivalent of Table 3): > 183 µM | MIC ([10]; Escherichia coli, ATCC25922, MHB without cations, 5 x 10^5 CFU/mL, 35°C 20–24 hours, duplicate, read-out: MIC E. coli ATCC): 4 µg/mL | MIC ([10]; Escherichia coli, ATCC25922, superscript value, cation-adjusted Mueller Hinton broth, read-out: MIC in the presence of cations E. coli ATCC): 8 µg/mL | MIC ([10]; Escherichia coli, ATCC25922, superscript value, cation-adjusted Mueller Hinton broth, µM equivalent, read-out: MIC in the presence of cations E. coli ATCC): 22.8 µM | MIC ([10]; Escherichia coli, ATCC25922, µM equivalent of Table 3, read-out: MIC E. coli ATCC): 11.4 µM

KVKRGLWDTVKRKVTNLRNSIRNRATNFKLGG [MagiCath1]
Antibacterial (MIC <64ug/mL) [1, 11]: N (Antibacterial (MIC <64ug/mL))

KRGFGDSVKKTGTKLKNSIRRRVTGLTVGAAVLRPG [MaruCath1p]
Antibacterial (MIC <64ug/mL) [1, 11]: N (Antibacterial (MIC <64ug/mL))

GEKVKTRFIAAIKKLIDTFLP [MaruCath8]
Antibacterial (MIC <64ug/mL) [1, 11]: N (Antibacterial (MIC <64ug/mL))

TPELFRSRRSPLPGRKKGSKRPKPGSYSVIALGKPGLKKAPYMEAL [LahiCath1]
Antibacterial (MIC <64ug/mL) [1, 11]: N (Antibacterial (MIC <64ug/mL))

RTLLRRVGEKVKTRFIAALEKLIDTFLP [MagiCath3, predicted eastern grey kangaroo cathelicidin mature peptide]
Antibacterial (MIC <64ug/mL) [1, 11]: Y (Antibacterial (MIC <64ug/mL)) | MIC ([5]; clinical isolate, µM equivalent of Table 3, read-out: MIC S. aureus): >14.3 µM | MIC ([6]; µM equivalent of Table 3): >14.3 µM | MIC ([7]; µM equivalent of Table 3, read-out: MIC S. aureus ATCC): >14.3 µM | MIC [8, 13]: >14.3 µM | MIC [9, 13]: >14.3 µM | MBC E. coli ATCC [10, 14]: > 14.3 µM | MIC E. coli ATCC ([10]; µM equivalent of Table 3): 14.3 µM

FRKLRNIFSRGRDDKE [MagiCath4]
Antibacterial (MIC <64ug/mL) [1, 11]: N (Antibacterial (MIC <64ug/mL))

Source: publication PMC12006171, “Marsupial cathelicidins: characterization, antimicrobial activity and evolution in this unique mammalian lineage” (Frontiers in Immunology, 2025)
